Assay results taken from patent US5807900A, “Method for identifying compounds having increased activity for the repair of skin photodamage” (priority 1995, dated 1998).
Where two headings read alike, the source gives them in different places.

Tests used:
[1] = system: photodamaged skin; assay: Measurement of photodamage repair in the hairless mouse model; format: in vivo, Hairless mice (female, HRS/J strain); conditions: for Photodamage repair activity (scale 0 to 4): UVB-irradiated, topical in acetone three times per week, three doses
Text: The ability of a composition of the invention to induce repair of photodamaged skin may be determined by any conventional means. One conventional method of determining the ability of a topical composition to repair photodamaged skin is the hairless mouse model described by Kligman et al., supra. […] In this model, repair is defined by the appearance of a zone of normalized dermis extending from the epidermis down to the layer of compressed elastin. The extent of repair is reflected by the width of this zone. […] The average width of the repair zone is then calculated by dividing the area by the length of the histological section that was measured.
The width of the repair zone is […] an activity value of 4.
Measurement of Photodamage Repair
Hairless mice (female, HRS/J strain, Jackson Labs, 5-7 weeks old at the start of the experiments) were housed in yellow light and irradiated three times per week with a bank of 8 Westinghouse Sunlamps (FS120) placed about 20 cm above the animals. Daily doses were 0.03 J/cm^2 for two weeks, 0.06 J/cm2 for two weeks and 0.08 J/cm2 thereafter. The radiation dose is controlled by an International Light Model IL844A Phototherapy Exposure Control and a model SEE240 detector.
To effect repair of the dermal damage, the UVB irradiation was discontinued and the animals were divided into groups of approximately eight and treated three times per week with various concentrations of the retinoids dissolved in acetone. Stock solutions are made up freshly every week in subdued light at concentrations such that the dose is delivered in 100 μl volume and applied topically with a plastic pipette to an area of about 10 cm^2 on the back of the animal. All dosing was done under yellow light. A control group treated with acetone alone was included.
Two-cm strips of dorsal skin were taken longitudinally down the center of the irradiated (and treated) area. Elastin fibers were stained with Luna's aldehyde fuchsin and collagen by Van Gieson. In this model, repair is defined by the appearance of a normalized dermis extending from the epidermis down to the layer of compressed elastin. The extent of repair is reflected by the width of this zone. […] Twenty-four fields each of which, at 100X magnification, represents a section of tissue 0.57 mm long, are examined and the area calculated. The results are reported as the average area per field in mm^2. Thus the average width of the repair zone can be obtained by dividing this average area by 0.57 mm. […] All microscopic fields are included in the calculations of average area (or width). Data are analyzed by Student's t-test.
Compounds are tested at three doses and an approximate ED50 calculated.

[2] = system: human RAR-γ; assay: RAR-γ transactivation assay (SeAP reporter, COS cells); format: cell-based; conditions: for Transactivation % max (γ): relative to all-trans-retinoic acid at same concentration (1,000 nM or 10,000 nM)
Description: (§1) Retinoid Receptor Transactivation Assays
(§2) Transactivation assays were performed essentially as described in Apfel et al., supra. For the RAR transcription activation test system, the secreted alkaline phosphatase gene (SeAP) is used as reporter. To have a screening system specific for the transfected receptor, chimeric receptors are used. These contain an estrogen receptor DNA binding domain and therefore recognize the estrogen response element (ERE) which no endogenous RAR's in mammalian cells will recognize.
(§3) The transactivation assay system has been adapted to 96-well plates and most steps are done by a robot. Briefly, on day 1 confluent COS cells are subcultured at an equivalent density onto 96-well plates in DMEM+10% charcoal stripped serum. On day 2 DNA is prepared for transfection by mixing the following: 10 μg vit-TK-SeAP reporter plasmid, 2 μg RAR expression plasmid, 2 μg transfection control plasmid and 30 μl Transfectam (lipopolyamine transfection reagent). Cells are washed twice with serum-free medium and DNA/transfectam mix added. After 1 hour medium is removed and replaced with growth medium containing test retinoids. On day 4 or 5 the culture supernatant is removed, heated to 65° for 5 min to inactivate nonspecific phosphatases, and diluted 1:10 with water. 20 μl samples are added to 100 μl of phosphatase substrate in buffer. After 1 hour at 37° the luminescence is measured in a 96-well luminometer.
(§4) 100 μl of β-galactosidase substrate is added to the adherent cells. Plates are incubated for 1 hour at 37° and the supernatants transferred to separate plates for quantitation of β-galactosidase activity by luminescence measurement. Transactivation results are expressed as the ratio of SeAP/β-galactosidase activity for each well to correct for well-to-well variation in transfection efficiency.
(§5) Data are means of values obtained from two or more individual experiments, rounded off to two significant figures. […] The maximum transactivation activity is determined from the plot where increasing dosage provides little or no additional activity, i.e., where the plot begins to level off. For active retinoids the highest concentration tested is 1000 nM.

[3] = system: human RAR-α; assay: RAR-α transactivation assay (SeAP reporter, COS cells); format: cell-based; conditions: for Transactivation % max (α): relative to all-trans-retinoic acid at same concentration (1,000 nM or 10,000 nM)
Description: as §1, §2, §3, §4, §5

[4] = system: RAR-β; assay: RAR-β transactivation assay (SeAP reporter, COS cells); format: cell-based, human; conditions: for Transactivation % max (β): relative to all-trans-retinoic acid at same concentration (1,000 nM or 10,000 nM)
Description: as §1, §2, §3, §4, §5

[5] = molecular target: T1, human RAR-α (Homo sapiens, UniProt P10276); assay: Binding assay for human RAR-α (displacement of 3H-retinoic acid); conditions: 3H-retinoic acid displacement, mean of two or more experiments
T1 sequence (P10276 201-462 limits assumed): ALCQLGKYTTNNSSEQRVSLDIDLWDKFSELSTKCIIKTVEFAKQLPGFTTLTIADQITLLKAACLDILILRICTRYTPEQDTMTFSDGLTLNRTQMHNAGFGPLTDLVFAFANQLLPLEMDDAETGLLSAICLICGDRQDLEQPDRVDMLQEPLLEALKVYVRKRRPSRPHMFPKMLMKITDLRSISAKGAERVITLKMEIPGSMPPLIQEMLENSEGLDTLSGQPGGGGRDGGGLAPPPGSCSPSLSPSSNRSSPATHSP

[6] = molecular target: T2, human RAR-β (Homo sapiens, UniProt P10826); assay: Binding assay for human RAR-β (displacement of 3H-retinoic acid); conditions: 3H-retinoic acid displacement, mean of two or more experiments
T2 sequence (P10826 201-455 limits assumed): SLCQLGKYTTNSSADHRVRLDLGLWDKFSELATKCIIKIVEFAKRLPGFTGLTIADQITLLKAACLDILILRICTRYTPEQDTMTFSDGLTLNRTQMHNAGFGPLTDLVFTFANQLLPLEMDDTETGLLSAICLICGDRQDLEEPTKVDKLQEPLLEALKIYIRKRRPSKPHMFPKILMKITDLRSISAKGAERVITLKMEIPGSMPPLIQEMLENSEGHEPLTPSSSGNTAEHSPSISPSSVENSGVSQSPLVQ
Description: (§6) Binding Assay for Human RAR-α, RAR-β and RAR-γ
(§7) Binding assays were performed essentially as described in Apfel et al., supra. […] Extracts containing the receptors were used in a competitive binding assay which depends upon the ability of increasing concentrations of a retinoid to displace ^3 H-retinoic acid. In a typical assay, 0.2 to 0.4 picomoles of receptors were incubated in 0.2 ml of 50 mM Tris HCl, pH 7.4, 50 mM NaCl, 2 mM EDTA (binding buffer) containing 0.5% gelatin, 1% DMSO, 2-5 nM ^3 H-retinoic acid and various concentrations of unlabelled retinoids. After 3-5 hours at 22° C., 0.15 ml of chilled charcoal/dextran suspension (5% Norit A/0.5% dextran T-40 in binding buffer) were added for 15 min at 4° C. The tubes were centrifuged at 12,000 x g for 15 minutes and the supernates counted. Binding parameters were calculated from competition curves using the Ligand program.
(§8) Data are means of values obtained from two or more individual experiments, rounded off to two significant figures. […] When binding inhibition at 10,000 nM is less than 50%, >10,000 is indicated.

[7] = molecular target: human RAR-γ; assay: Binding assay for human RAR-γ (displacement of 3H-retinoic acid); conditions: 3H-retinoic acid displacement, mean of two or more experiments
Description: as §6, §7, §8

[8] = COS cells, 50% of the compound's own maximum, set to highest concentration tested (usually 1000 nM) if no maximum reached, read-out: Transactivation ED50 (β)
[9] = RAR-γ, COS cells, 50% of the compound's own maximum, set to highest concentration tested (usually 1000 nM) if no maximum reached, read-out: Transactivation ED50 (γ)
[10] = COS cells, 50% of the compound's own maximum, set to highest concentration tested (usually 1000 nM) if no maximum reached, read-out: Transactivation ED50 (α)

Row | SMILES | Photodamage repair activity (scale 0 to 4) [1] | EC50 [2] | Transactivation % max (γ) ([2]; RAR-γ) | EC50 ([3]; read-out: Transactivation ED50 (α), COS cells, 50% of the compound's own maximum, set to highest concentration tested (usually 1000 nM) if no maximum reached) | Transactivation % max (α) [3] | ED50 for photodamage repair ([1]; μg of test compound applied to 10 cm^2 of skin area, standard retinoid) | EC50 ([4]; read-out: Transactivation ED50 (β), COS cells, 50% of the compound's own maximum, set to highest concentration tested (usually 1000 nM) if no maximum reached) | Transactivation % max (β) [4] | IC50 [5] | EC50 [4, 8] | IC50 [6] | EC50 [2, 9] | IC50 [7] | EC50 [3, 10]
3 | CCCCCCCOc1cc2c(cc1/C(C)=C/c1ccc(C(=O)O)cc1)C(C)(C)CCS2(=O)=O [Compound L, p-[(E)-2-[3',4'-dihydro-4',4'-dimethyl-7'-(heptyloxy)-2'H-1-benzothiopyran-6'-yl]propenyl]benzoic acid 1',1'-dioxide, reference compound] | 0 | – | 18% | – | 14% | – | – | 14% | 0.07 µM | 1 µM | 4.7 µM | 1 µM | 4.2 µM | 1 µM
4 | COc1cc(C)c(/C=C/C(C)=C/C=C/C(C)=C/C(=O)O)c(C)c1C [D, acitretin, reference compound] | 0 | – | – | – | – | – | – | – | – | – | – | – | […] | –
5 | CCOC(=O)/C=C(C)/C=C/C=C(C)/C=C/c1c(C)cc(OC)c(C)c1C [E, etretinate, reference compound] | 0 | – | 20% | – | 14% | – | – | 21% | > 10 µM | 1 µM | > 10 µM | 1 µM | > 10 µM | 1 µM
6 | C/C(=C\c1ccc(C(=O)O)cc1)c1ccc2c(c1)C(C)(C)CCC2(C)C [F] | 1 (an ED50 of 100 μg) | – | – | – | – | – | – | – | – | – | – | – | – | –
7 | C/C(=C\c1ccc(S(C)(=O)=O)cc1)c1ccc2c(c1)C(C)(C)CCC2(C)C [G] | 3 (an ED50 of 1 μg or less (highly active)) | – | 36% | – | 23% | – | – | 17% | > 10 µM | 1 µM | > 10 µM | 1 µM | > 10 µM | 1 µM
8 | C/C(=C\c1ccccc1)c1ccc2c(c1)C(C)(C)CCC2(C)C [H] | 0 | – | 19% | – | 12% | – | – | 10% | > 10 µM | 1 µM | > 10 µM | 1 µM | > 10 µM | 1 µM
9 | CCS(=O)(=O)c1ccc(/C=C(\C)c2ccc3c(c2)C(C)(C)CCC3(C)C)cc1 [I] | 3 (an ED50 of 1 μg or less (highly active)) | – | 21% | – | 10% | – | – | 21% | > 10 µM | 1 µM | > 10 µM | 1 µM | > 10 µM | 1 µM
10 | CC1(C)CCC(C)(C)c2cc(C(=O)Nc3ccc(C(=O)O)cc3)ccc21 [J] | 0 | – | – | – | – | – | – | – | – | – | – | – | – | –
11 | CC1(C)CCC(C)(C)c2cc(NC(=O)c3ccc(C(=O)O)cc3)ccc21 [K] | 0 | – | – | – | – | – | – | – | – | – | – | – | – | –
12 | CCCCCCc1cc2c(cc1/C=C/c1ccc(C(=O)O)cc1)C(C)(C)CCC2(C)C [M] | 4 | – | 36% | – | 24% | – | – | 62% | 2.2 µM | 0.088 µM | 2.3 µM | 0.015 µM | 0.21 µM | 1 µM
13 | CCCCCCc1cc2c(cc1/C=C/C=C/C(C)=C/C(=O)O)C(C)(C)CCC2(C)C [N] | 4 | – | 123% | – | 63% | – | – | 60% | 1.5 µM | 1 µM | 2.9 µM | 0.064 µM | 0.17 µM | 1 µM
14 | CCCCc1cc2c(cc1/C=C/c1ccc(C(=O)O)cc1)C(C)(C)CCC2(C)C [O] | 4 | – | 105% | – | 56% | – | – | 88% | 1.5 µM | 0.03 µM | 1.8 µM | 0.006 µM | 0.17 µM | 0.13 µM
